The supplement of paper PMC10307832

Legend:
Assay in all cases: relative viability (nuclei count vs DMSO), 5 days (fraction); higher = more cells survive
[1] = test system: NCI-H2023
Outline: (§1)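 Relative viability equals treated-well nuclei counts divided by vehicle-well nuclei counts. Counts came from 4× images of lung cancer cell lines grown in 1536-well plates for 5 days after pin-tool dosing on the day after seeding. Dosing used one drug alone or a fixed anchor-drug dose plus five library-drug doses (not always all listed) in √10 steps, and values are medians of duplicate plates.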

[2] = test system: A-427
Outline: as §1

[3] = test system: NCI-H1792
Outline: as §1

[4] = test system: LC-2-ad
Outline: as §1

[5] = test system: CAL-12T
Outline: as §1

[6] = test system: NCI-H1734
Outline: as §1

[7] = test system: NCI-H520
Outline: as §1

[8] = test system: NCI-H2347
Outline: as §1

[9] = test system: NCI-H2405
Outline: as §1

[10] = test system: COR-L 105
Outline: as §1

[11] = test system: EPLC-272H
Outline: as §1

[12] = test system: NCI-H1915
Outline: as §1

[13] = test system: NCI-H1395
Outline: as §1

[14] = test system: NCI-H1563
Outline: as §1

[15] = test system: SW 900
Outline: as §1

[16] = test system: HCC-44
Outline: as §1

[17] = test system: NCI-H1975
Outline: as §1

[18] = test system: NCI-H2342
Outline: as §1

[19] = test system: NCI-H838
Outline: as §1

[20] = test system: SW 1573
Outline: as §1

[21] = test system: HCC-15
Outline: as §1

[22] = test system: LCLC-97TM1
Outline: as §1

[23] = test system: UMC-11
Outline: as §1

Cc1csc(=NC2CCCCC2)n1/N=C/c1ccc(O)c(O)c1O [MIM1] + CCNC(=O)c1noc(-c2cc(C(C)C)c(O)cc2O)c1-c1ccc(CN2CCOCC2)cc1 [Luminespib] (partner 0.01 µM)
relative viability ([1]; first compound 0.2 µM): 0.791
relative viability ([1]; first compound 0.6325 µM): 0.691
relative viability ([1]; first compound 2 µM): 0.646
relative viability ([1]; first compound 6.325 µM): 0.388
relative viability ([1]; first compound 20 µM): 0.07
relative viability ([2]; first compound 0.2 µM): 0.832
relative viability ([2]; first compound 0.6325 µM): 1.06
relative viability ([2]; first compound 2 µM): 0.955
relative viability ([2]; first compound 6.325 µM): 0.747
relative viability ([2]; first compound 20 µM): 0.267
relative viability ([3]; first compound 0.2 µM): 0.449
relative viability ([3]; first compound 0.6325 µM): 0.43
relative viability ([3]; first compound 2 µM): 0.5
relative viability ([3]; first compound 6.325 µM): 0.398
relative viability ([3]; first compound 20 µM): 0.396
relative viability ([4]; first compound 0.2 µM): 1.06
relative viability ([4]; first compound 0.6325 µM): 0.964
relative viability ([4]; first compound 2 µM): 0.727
relative viability ([4]; first compound 6.325 µM): 0.485
relative viability ([4]; first compound 20 µM): 0.233
relative viability ([5]; first compound 0.2 µM): 0.29
relative viability ([5]; first compound 0.6325 µM): 0.542
relative viability ([5]; first compound 2 µM): 0.522
relative viability ([5]; first compound 6.325 µM): 0.281
relative viability ([5]; first compound 20 µM): 0.328
relative viability ([6]; first compound 0.2 µM): 0.0909
relative viability ([6]; first compound 0.6325 µM): 0.233
relative viability ([6]; first compound 2 µM): 0.198
relative viability ([6]; first compound 6.325 µM): 0.168
relative viability ([6]; first compound 20 µM): 0.157
relative viability ([7]; first compound 0.2 µM): 0.208
relative viability ([7]; first compound 0.6325 µM): 0.259
relative viability ([7]; first compound 2 µM): 0.178
relative viability ([7]; first compound 6.325 µM): 0.274
relative viability ([7]; first compound 20 µM): 0.257
relative viability ([8]; first compound 0.2 µM): 0.496
relative viability ([8]; first compound 0.6325 µM): 0.403
relative viability ([8]; first compound 2 µM): 0.236
relative viability ([8]; first compound 6.325 µM): 0.346
relative viability ([8]; first compound 20 µM): 0.334
relative viability ([9]; first compound 0.2 µM): 0.68
relative viability ([9]; first compound 0.6325 µM): 0.92
relative viability ([9]; first compound 2 µM): 0.654
relative viability ([9]; first compound 6.325 µM): 0.543
relative viability ([9]; first compound 20 µM): 0.403
relative viability ([10]; first compound 0.2 µM): 0.721
relative viability ([10]; first compound 0.6325 µM): 0.918
relative viability ([10]; first compound 2 µM): 0.813
relative viability ([10]; first compound 6.325 µM): 0.642
relative viability ([10]; first compound 20 µM): 0.801
relative viability ([11]; first compound 0.2 µM): 0.491
relative viability ([11]; first compound 0.6325 µM): 0.266
relative viability ([11]; first compound 2 µM): 0.205
relative viability ([11]; first compound 6.325 µM): 0.143
relative viability ([11]; first compound 20 µM): 0.122
relative viability ([12]; first compound 0.2 µM): 0.743
relative viability ([12]; first compound 0.6325 µM): 0.641
relative viability ([12]; first compound 2 µM): 0.685
relative viability ([12]; first compound 6.325 µM): 0.579
relative viability ([12]; first compound 20 µM): 0.183
relative viability ([13]; first compound 0.2 µM): 0.66
relative viability ([13]; first compound 0.6325 µM): 0.547
relative viability ([13]; first compound 2 µM): 0.755
relative viability ([13]; first compound 6.325 µM): 0.573
relative viability ([13]; first compound 20 µM): 0.293
relative viability ([14]; first compound 0.2 µM): 0.51
relative viability ([14]; first compound 0.6325 µM): 0.607
relative viability ([14]; first compound 2 µM): 0.519
relative viability ([14]; first compound 6.325 µM): 0.553
relative viability ([14]; first compound 20 µM): 0.362
relative viability ([15]; first compound 0.2 µM): 0.174
relative viability ([15]; first compound 0.6325 µM): 0.199
relative viability ([15]; first compound 2 µM): 0.19
relative viability ([15]; first compound 6.325 µM): 0.185
relative viability ([15]; first compound 20 µM): 0.2
relative viability ([16]; first compound 0.2 µM): 0.952
relative viability ([16]; first compound 0.6325 µM): 1.04
relative viability ([16]; first compound 2 µM): 0.433
relative viability ([16]; first compound 6.325 µM): 0.735
relative viability ([16]; first compound 20 µM): 0.228
relative viability ([17]; first compound 0.2 µM): 0.202
relative viability ([17]; first compound 0.6325 µM): 0.261
relative viability ([17]; first compound 2 µM): 0.193
relative viability ([17]; first compound 6.325 µM): 0.279
relative viability ([17]; first compound 20 µM): 0.136
relative viability ([18]; first compound 0.2 µM): 0.739
relative viability ([18]; first compound 0.6325 µM): 0.723
relative viability ([18]; first compound 2 µM): 0.642
relative viability ([18]; first compound 6.325 µM): 0.624
relative viability ([18]; first compound 20 µM): 0.985
relative viability ([19]; first compound 0.2 µM): 0.372
relative viability ([19]; first compound 0.6325 µM): 0.317
relative viability ([19]; first compound 2 µM): 0.288
relative viability ([19]; first compound 6.325 µM): 0.267
relative viability ([19]; first compound 20 µM): 0.16
relative viability ([20]; first compound 0.2 µM): 0.22
relative viability ([20]; first compound 0.6325 µM): 0.318
relative viability ([20]; first compound 2 µM): 0.194
relative viability ([20]; first compound 6.325 µM): 0.143
relative viability ([20]; first compound 20 µM): 0.069
relative viability ([21]; first compound 0.2 µM): 0.244
relative viability ([21]; first compound 0.6325 µM): 0.353
relative viability ([21]; first compound 2 µM): 0.43
relative viability ([21]; first compound 6.325 µM): 0.259
relative viability ([21]; first compound 20 µM): 0.133
relative viability ([22]; first compound 0.2 µM): 0.783
relative viability ([22]; first compound 0.6325 µM): 0.733
relative viability ([22]; first compound 2 µM): 0.755
relative viability ([22]; first compound 6.325 µM): 0.512
relative viability ([22]; first compound 20 µM): 0.238
relative viability ([23]; first compound 0.2 µM): 1.03
relative viability ([23]; first compound 2 µM): 1.23
relative viability ([23]; first compound 6.325 µM): 0.686
relative viability ([23]; first compound 20 µM): 0.369
